In data set [1] the test system is Mus musculus. Nature of the data set: Toxicity in BDF1 mouse allografted with mouse L1210 cells assessed as reduction in average life span at 1000 mg/kg, ip administered 24 hrs post-implantation measured up to 30 days relative to control. The data set is classed as organism-based. On the set-up: dose 1000 mg/kg, route intraperitoneal; scale not given: the % may be the effect or the level left. As to conditions: in vivo.

The test system of data set [2] is Mus musculus. Nature of the data set: Toxicity in BDF1 mouse allografted with mouse L1210 cells assessed as survival at 500 mg/kg, ip administered 24 hrs post-implantation after 30 days. The conditions noted are these: in vivo, 720 h. The data set is classed as organism-based. On the set-up: dose 500 mg/kg, route intraperitoneal.
Data set [3] deals with Herpesviridae sp. Nature of the data set: Antiviral activity against Herpes simplex virus HF infected in African green monkey BGM cells after 6 days by plaque reduction assay. The format is functional. The conditions noted are these: 144 h, read-out: ED50 (the source's name). Background: Plaque reduction counts the foci of infection that form in a cell layer.
Data set [4] concerns HeLa. Nature of the data set: Cytotoxicity against human HeLa cells after 48 hrs by Coulter counting analysis. As to conditions: read-out: ED50 (the source's name). The format is functional.
Data set [5] deals with L1210. Nature of the data set: Antitumor activity against mouse L1210 cells allografted in BDF1 mouse assessed as increase in life span at 50 mg/kg, ip administered 24 hrs post-implantation measured up to 30 days relative to control. The format is functional. The conditions noted are these: route intraperitoneal.
Data set [6] deals with Vaccinia virus. Nature of the data set: Antiviral activity against Vaccinia virus IHD infected in African green monkey BGM cells after 6 days by plaque reduction assay. The format is functional. As to conditions: Orthopoxvirus vaccinia, 144 h, read-out: ED50 (the source's name).
Data set [7] has as its system L1210. Kind of data set: Antitumor activity against mouse L1210 cells allografted in BDF1 mouse assessed as increase in life span at 200 mg/kg, ip administered 24 hrs post-implantation measured up to 30 days relative to control. The format is functional. As to conditions: route intraperitoneal.
In data set [8] the test system is Measles morbillivirus. Kind of data set: Antiviral activity against Measles virus infected in African green monkey BGM cells after 5 days by pulp disk diffusion assay. The data set is classed as functional, organism-based.
Data set [9] has as its system Mus musculus. Kind of data set: Toxicity in BDF1 mouse allografted with mouse L1210 cells assessed as survival at 1000 mg/kg, ip administered 24 hrs post-implantation after 30 days. The data set is classed as organism-based. On the set-up: dose 1000 mg/kg, route intraperitoneal. The conditions noted are these: in vivo, 720 h.
For data set [10], the system named is BGM. Nature of the data set: Antiviral activity against Poliovirus type 1 Mahoney infected in African green monkey BGM cells after 5 days by pulp disk diffusion assay. The data set is classed as functional, cell-based. As to conditions: Human poliovirus 1 Mahoney. On the technique in general: A growth-free zone around the sample is the usual read-out of agar diffusion tests.

Data set [11] relates to L1210. Kind of data set: Antitumor activity against mouse L1210 cells allografted in po dosed BDF1 mouse administered 24 hrs post-implantation. The format is functional, organism-based.
The test system of data set [12] is Mus musculus. Nature of the data set: Toxicity in BDF1 mouse allografted with mouse L1210 cells assessed as reduction in average life span at 500 mg/kg, ip administered 24 hrs post-implantation measured up to 30 days relative to control. The data set is classed as organism-based. Set-up: dose 500 mg/kg, route intraperitoneal; scale not given: the % may be the effect or the level left. As to conditions: in vivo.

Data set [13] deals with unidentified influenza virus. Nature of the data set: Antiviral activity against Influenza virus Ao/WNS infected in monkey LLC-MK2 cells after 5 days by pulp disk diffusion assay. The data set is classed as functional, organism-based.
The test system of data set [14] is L1210. Nature of the data set: Antitumor activity against mouse L1210 cells allografted in BDF1 mouse assessed as survival at 500 mg/kg, ip administered 24 hrs post-implantation after 30 days. The data set is classed as functional, organism-based. Set-up: dose 500 mg/kg.
The subject of data set [15] is L1210. Kind of data set: Antitumor activity against mouse L1210 cells allografted in BDF1 mouse assessed as increase in life span at 500 mg/kg, ip administered 24 hrs post-implantation measured up to 30 days relative to control. The data set is classed as functional. The conditions noted are these: route intraperitoneal.
Data set [16] relates to L1210. Nature of the data set: Antitumor activity against mouse L1210 cells allografted in BDF1 mouse assessed as survival at 200 mg/kg, ip administered 24 hrs post-implantation after 30 days. The data set is classed as functional, organism-based. On the set-up: dose 200 mg/kg.
Data set [17] relates to Mus musculus. Kind of data set: Toxicity in BDF1 mouse allografted with mouse L1210 cells at 50 mg/kg, ip administered 24 hrs post-implantation measured up to 30 days. The data set is classed as organism-based. On the set-up: dose 50 mg/kg, route intraperitoneal. The conditions noted are these: in vivo.
In data set [18] the test system is Mus musculus. Nature of the data set: Toxicity in BDF1 mouse allografted with mouse L1210 cells assessed as reduction in average life span at 200 mg/kg, ip administered 24 hrs post-implantation measured up to 30 days relative to control. The format is organism-based. Set-up: dose 200 mg/kg, route intraperitoneal; scale not given: the % may be the effect or the level left. As to conditions: in vivo.

Data set [19] has as its system L1210. Kind of data set: Antitumor activity against mouse L1210 cells allografted in BDF1 mouse assessed as survival at 50 mg/kg, ip administered 24 hrs post-implantation after 30 days. The data set is classed as functional, organism-based. Set-up: dose 50 mg/kg.
The subject of data set [20] is Mus musculus. Kind of data set: Toxicity in BDF1 mouse allografted with mouse L1210 cells assessed as survival at 200 mg/kg, ip administered 24 hrs post-implantation after 30 days. The format is organism-based. On the set-up: dose 200 mg/kg, route intraperitoneal. The conditions noted are these: in vivo, 720 h.
The test system of data set [21] is Mus musculus. Kind of data set: Toxicity in BDF1 mouse allografted with mouse L1210 cells at 50 to 1000 mg/kg, ip administered 24 hrs post-implantation measured up to 30 days. The data set is classed as organism-based. On the set-up: dose 50-1000 mg/kg, route intraperitoneal. The conditions noted are these: in vivo.
Data set [22] has as its system L1210. Kind of data set: Antitumor activity against mouse L1210 cells allografted in BDF1 mouse assessed as increase in life span at 1000 mg/kg, ip administered 24 hrs post-implantation measured up to 30 days relative to control. As to conditions: route intraperitoneal. The data set is classed as functional.
In data set [23] the test system is L1210. Kind of data set: Antitumor activity against mouse L1210 cells allografted in BDF1 mouse assessed as survival at 1000 mg/kg, ip administered 24 hrs post-implantation after 30 days. The data set is classed as functional, organism-based. On the set-up: dose 1000 mg/kg.

The source made the active and inactive calls. No cut-off for these calls is given here.

The term ILS denotes the gain in survival time of treated over control animals, in per cent. Take `CCCCCCCCCCCCCC(=O)OC[C@H]1O[C@@H]2[C@@H](Oc3nc(=N)ccn32)[C@@H]1OC(=O)CCCCCCCCCCCCC.Cl`: the Activity in data set [1] is 18%; in data set [2] it was “Toxic”; in data set [9], “Toxic”; in data set [12], 20%. Further, the EC50 in data set [3] was found to be 6.05 µM; in data set [4] it was 0.48 µg/mL; in data set [6], 1.75 µM. For the same compound, the ILS at 50 mg/kg in data set [5] is more than 129%. Further, the ILS at 200 mg/kg in [7] is more than 295%. Besides, the result in data set [8], in data set [10], in data set [11] and in [13] was inactive.

Consider `CCCC(=O)OC[C@H]1O[C@@H]2[C@@H](Oc3nc(=N)ccn32)[C@@H]1OC(=O)CCC.Cl`, for which the results for the Activity in [1] and in [9] were 100% and “Toxic”, respectively. For the same compound, the result in data set [14], in data set [8], in [10], in [11], in [13] and in data set [16] was inactive. In addition, the figures for the EC50 in [3], in data set [4] and in [6] were 4.9 µM, 0.11 µg/mL and 1.55 µM, respectively. The ILS at 200 mg/kg in data set [7] turned out to be 58%. Also, the ILS at 500 mg/kg in data set [15] came to 85%.

Turning to `C/C=C/C=C/C(=O)OC[C@H]1O[C@@H]2[C@@H](Oc3nc(=N)ccn32)[C@@H]1OC(=O)/C=C/C=C/C.Cl`, the Activity entry in data set [17] was “Non-toxic”; in [18], 100%; in data set [20], “Toxic”. Further, the EC50 in [3] is more than 10 µM; in data set [4], 0.1 µg/mL; in data set [6], 5.8 µM. For the same compound, the ILS at 50 mg/kg in data set [5] amounted to 1%. Also, the outcome in data set [8], in [19], in [10], in data set [11] and in [13] was inactive.

As for `CCCCCCCC/C=C\CCCCCCCCCCCC(=O)OC[C@H]1O[C@@H]2[C@@H](Oc3nc(=N)ccn32)[C@@H]1OC(=O)CCCCCCCCCCC/C=C\CCCCCCCC.Cl`, the result in data set [14] and in data set [23] was Active. In addition, the EC50 in [3] is more than 30 µM; in data set [4] it was 4 µg/mL; in data set [6], more than 30 µM. The ILS at 50 mg/kg in [5] is more than 202%. Also, in data set [21], the Activity entry is “Non-toxic”. Besides, in data set [7], the increase in life span (ILS) at 200 mg/kg is more than 267%. The increase in lifespan (ILS) at 1000 mg/kg in [22] is more than 257%. For the same compound, in data set [15], the ILS at 500 mg/kg was more than 257%. In addition, the outcome in data set [8], in data set [10], in data set [11] and in [13] was inactive.

Consider `CCCCCCCCCCCC(=O)OC[C@H]1O[C@@H]2[C@@H](Oc3nc(=N)ccn32)[C@@H]1OC(=O)CCCCCCCCCCC.Cl`, for which the Activity in data set [1] was 18%; in [2] it was “Toxic”; in [9] it was “Toxic”; in [12], 23%. The EC50 in [3] was 3.45 µM; in data set [4] it was 0.48 µg/mL; in data set [6], 0.7 µM. The ILS at 50 mg/kg in data set [5] is more than 195%. The ILS at 200 mg/kg in data set [7] was more than 310%. Moreover, the outcome in data set [8], in [10], in data set [11] and in [13] was inactive. Also, the result in [16] was Active.

As to `CCCCCCCC/C=C/CCCCCCCC(=O)OC[C@H]1O[C@@H]2[C@@H](Oc3nc(=N)ccn32)[C@@H]1OC(=O)CCCCCCC/C=C/CCCCCCCC.Cl`, in [14], the result was Active. Also, the figures for the EC50 in [3], in [4] and in [6] were 9.3 µM, 1.4 µg/mL and 4.7 µM, respectively. Besides, the ILS at 50 mg/kg in [5] was determined as 114%. In addition, the ILS at 200 mg/kg in [7] was more than 258%. In data set [22], the ILS at 1000 mg/kg was 11%. The ILS at 500 mg/kg in data set [15] is more than 257%. The outcome in [8], in [19], in data set [10], in data set [23], in [11] and in [13] was inactive.

For `C=CCCCCCCCCC(=O)OC[C@H]1O[C@@H]2[C@@H](Oc3nc(=N)ccn32)[C@@H]1OC(=O)CCCCCCCCC=C.Cl`, the Activity result in data set [17] is on record as “Non-toxic”; in data set [18] it was 74%; in data set [20], “Toxic”. Besides, the EC50 was 0.78 µM in data set [3], 0.1 µg/mL in [4] and 0.44 µM in data set [6]. Besides, the ILS at 50 mg/kg in data set [5] came to 24%. For the same compound, the result in [8], in [19], in data set [10], in [11] and in data set [13] was inactive.

In the case of `CCCCCC(=O)OC[C@H]1O[C@@H]2[C@@H](Oc3nc(=N)ccn32)[C@@H]1OC(=O)CCCCC.Cl`, the Activity is reported as 100% in data set [1]; “Toxic” in data set [2]; 61% in data set [18]; “Toxic” in data set [9]; 86% in [12]; “Toxic” in data set [20]. The EC50 in data set [3] came to 1 µM; in [4], 0.11 µg/mL; in data set [6] it was 0.27 µM. Further, in data set [5], the ILS at 50 mg/kg amounted to 26%. The result in data set [8], in data set [19], in data set [10], in data set [11] and in [13] was inactive.

For the compound `CCCCCCCC/C=C\CCCCCCCC(=O)OC[C@H]1O[C@@H]2[C@@H](Oc3nc(=N)ccn32)[C@@H]1OC(=O)CCCCCCC/C=C\CCCCCCCC.Cl`, the Activity in data set [1] was 31%; in data set [2] it was “Toxic”; in [9], “Toxic”; in [12], 23%. Further, the EC50 stood at 8.5 µM in data set [3], 0.3 µg/mL in [4] and 3.2 µM in data set [6]. The ILS at 50 mg/kg in [5] is more than 141%. Besides, the increase in lifespan (ILS) at 200 mg/kg in [7] is more than 257%. For the same compound, the outcome in [8], in [10], in [11] and in data set [13] was inactive. In [16], the outcome was Active.

These data come from ChEMBL document CHEMBL3272098, “Reactions of 2-acyloxyisobutyryl halides with nucleosides. 7. Synthesis and biological evaluation of some 2,2'-anhydro-1(3',5'-di-O-acyl-beta-D-arabinofuranosyl)cytosine hydrochlorides” (J Med Chem, 1976).
